In assay [1] the target is T1, P2X purinoceptor 7 (Homo sapiens, UniProt Q99572).
T1 sequence (Q99572 whole entry): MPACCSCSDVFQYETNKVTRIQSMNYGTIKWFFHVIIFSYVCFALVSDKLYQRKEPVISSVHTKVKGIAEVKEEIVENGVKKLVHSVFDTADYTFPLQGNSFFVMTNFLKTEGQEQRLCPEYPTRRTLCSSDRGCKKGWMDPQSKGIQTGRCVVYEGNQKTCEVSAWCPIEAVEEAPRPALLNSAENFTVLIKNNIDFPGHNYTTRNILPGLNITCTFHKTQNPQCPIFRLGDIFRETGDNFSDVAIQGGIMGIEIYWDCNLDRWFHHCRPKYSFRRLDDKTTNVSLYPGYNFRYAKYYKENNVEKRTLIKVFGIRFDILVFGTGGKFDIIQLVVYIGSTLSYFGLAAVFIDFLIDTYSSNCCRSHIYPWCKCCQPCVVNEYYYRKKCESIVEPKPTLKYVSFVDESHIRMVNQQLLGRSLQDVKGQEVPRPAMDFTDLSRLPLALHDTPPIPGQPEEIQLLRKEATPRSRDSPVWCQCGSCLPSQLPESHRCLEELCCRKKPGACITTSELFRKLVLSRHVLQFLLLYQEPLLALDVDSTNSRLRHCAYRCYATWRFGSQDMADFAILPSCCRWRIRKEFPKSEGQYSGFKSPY
In words: Antagonist activity at human recombinant P2X7 receptor assessed as inhibition of BzATP-induced calcium flux by FLIPR assay. In kind it is functional. (A change in cytosolic calcium serves as a functional read-out for many receptors and channels.)

Assay [2] deals with T2, P2X purinoceptor 7 (Rattus norvegicus, UniProt Q64663).
T2 sequence (Q64663 whole entry): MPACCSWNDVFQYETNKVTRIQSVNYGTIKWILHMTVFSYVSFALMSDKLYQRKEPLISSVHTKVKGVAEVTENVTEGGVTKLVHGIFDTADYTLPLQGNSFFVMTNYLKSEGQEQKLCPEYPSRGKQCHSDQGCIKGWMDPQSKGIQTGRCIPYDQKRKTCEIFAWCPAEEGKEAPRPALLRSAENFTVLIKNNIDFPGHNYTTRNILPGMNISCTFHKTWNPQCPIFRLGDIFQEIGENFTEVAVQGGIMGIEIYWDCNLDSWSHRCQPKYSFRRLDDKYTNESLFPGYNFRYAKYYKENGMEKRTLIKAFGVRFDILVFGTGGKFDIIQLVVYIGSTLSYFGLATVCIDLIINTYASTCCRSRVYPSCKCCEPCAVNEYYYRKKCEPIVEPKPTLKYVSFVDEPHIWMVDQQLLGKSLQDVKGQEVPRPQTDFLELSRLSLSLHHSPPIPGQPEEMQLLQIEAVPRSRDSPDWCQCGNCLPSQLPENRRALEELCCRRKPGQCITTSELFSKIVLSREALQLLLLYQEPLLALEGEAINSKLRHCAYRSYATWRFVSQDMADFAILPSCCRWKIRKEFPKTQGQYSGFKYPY
Put plainly: Antagonist activity at rat recombinant P2X7 receptor assessed as inhibition of BzATP-induced calcium flux by FLIPR assay. In kind it is functional.

Each structure is given as a SMILES string. pIC50: −log10 of the molar value.

Consider `Clc1cccc(-n2cnnc2NCc2cccnc2Oc2cccnc2)c1Cl`, for which the pIC50 (as a rule, the IC50 on a negative log10 scale, so that one unit is a factor of ten) at P2X purinoceptor 7 [1] was 7.51; on P2X purinoceptor 7 [2] it was 7.45.

For `COc1ccccc1Nc1ncnn1-c1cccc(Cl)c1Cl`, the pIC50 at P2X purinoceptor 7 [1] was 6.99; at P2X purinoceptor 7 [2] it was 5.69.

Turning to `CCOc1ccccc1CNc1ncnn1-c1cccc(Cl)c1Cl`, the pIC50 is 7.34 on P2X purinoceptor 7 [1] and 6.31 on P2X purinoceptor 7 [2].

In the case of `Clc1cccc(-n2ncnc2NCc2cccnc2N2CCCC2)c1Cl`, the pIC50 at P2X purinoceptor 7 [1] was 7.90; on P2X purinoceptor 7 [2] it was 7.55.

As to `Clc1cccc(-n2ncnc2NCc2ccncc2)c1Cl`, the pIC50 on P2X purinoceptor 7 [1] and on P2X purinoceptor 7 [2] was below 5.00 each time.

For `Cc1ncccc1CNc1nncn1-c1cccc(Cl)c1Cl`, the pIC50 on P2X purinoceptor 7 [1] was 7.54; at P2X purinoceptor 7 [2] it was 6.75.

In the case of `Clc1cccc(-n2ncnc2NCc2cccnc2-c2ccsc2)c1Cl`, the pIC50 at P2X purinoceptor 7 [1] was 7.82; at P2X purinoceptor 7 [2] it was 6.86.

`Clc1cccc(-n2ncnc2NCc2cccnc2Oc2cccnc2)c1Cl`: the pIC50 is 7.86 at P2X purinoceptor 7 [1] and 6.89 at P2X purinoceptor 7 [2].

For the molecule `Clc1cccc(-n2ncnc2Nc2ccccc2N2CCOCC2)c1Cl`, the pIC50 at P2X purinoceptor 7 [1] was 5.47; on P2X purinoceptor 7 [2] it was 5.31.

As for `Clc1cccc(-n2ncnc2Nc2ccccc2)c1Cl`, the results for the pIC50 at P2X purinoceptor 7 [1] and at P2X purinoceptor 7 [2] were 6.44 and 5.41, respectively.

Take `Clc1cccc(-n2ncnc2NCc2cccnc2)c1Cl`: the pIC50 is 6.93 on P2X purinoceptor 7 [1] and 5.88 at P2X purinoceptor 7 [2].

For `CC(C)N1CCCN(c2ncccc2CNc2nncn2-c2cccc(Cl)c2Cl)CC1`, at P2X purinoceptor 7 [1], the pIC50 was 7.17.

As for `NC(=O)CN1CCCN(c2ncccc2CNc2nncn2-c2cccc(Cl)c2Cl)CC1`, the pIC50 at P2X purinoceptor 7 [1] is 7.49.

Regarding `Cc1ccccc1Nc1ncnn1-c1cccc(Cl)c1Cl`, the figures for the pIC50 at P2X purinoceptor 7 [1] and on P2X purinoceptor 7 [2] were 7.75 and 6.62, respectively.

Take `CCc1ccccc1Nc1ncnn1-c1cccc(Cl)c1Cl`: the pIC50 is 7.34 on P2X purinoceptor 7 [1] and 6.54 at P2X purinoceptor 7 [2].

Turning to `COc1cccc(CNc2ncnn2-c2cccc(Cl)c2Cl)c1OC`, the figures for the pIC50 on P2X purinoceptor 7 [1] and on P2X purinoceptor 7 [2] were 7.51 and 6.87, respectively.

`Clc1cccc(-n2cnnc2NCc2cccnc2N2CCCC2)c1Cl`: the pIC50 at P2X purinoceptor 7 [1] is 7.83; at P2X purinoceptor 7 [2] it was 7.92.

With `Cc1cccc(CNc2ncnn2-c2cccc(Cl)c2Cl)c1`, the results for the pIC50 on P2X purinoceptor 7 [1] and at P2X purinoceptor 7 [2] were 6.81 and 5.99, respectively.

Consider `Cc1ccc(CNc2ncnn2-c2cccc(Cl)c2Cl)cc1`, for which the pIC50 at P2X purinoceptor 7 [1] was 6.32; at P2X purinoceptor 7 [2], 5.15.

As for `Clc1cccc(-n2ncnc2NCc2ccccc2)c1Cl`, the negative logarithm of the IC50 (pIC50) at P2X purinoceptor 7 [1] was 7.32; on P2X purinoceptor 7 [2], 6.68.

In the case of `Cc1cccc(CNc2ncnn2-c2cccc(Cl)c2Cl)c1C`, the values for the pIC50 at P2X purinoceptor 7 [1] and at P2X purinoceptor 7 [2] were 7.17 and 6.20, respectively.

Turning to `Clc1cccc(-c2nnnn2Cc2cccnc2)c1Cl`, the results for the pIC50 at P2X purinoceptor 7 [1] and on P2X purinoceptor 7 [2] were 6.91 and 6.51, respectively.

For `Clc1cccc(-n2ncnc2NCc2ccccc2Oc2cccnc2)c1Cl`, the pIC50 is 7.33 on P2X purinoceptor 7 [1] and 6.80 on P2X purinoceptor 7 [2].

On to `Clc1cccc(-n2ncnc2NCc2cccnc2N2CCC2)c1Cl`, for which the results for the pIC50 on P2X purinoceptor 7 [1] and at P2X purinoceptor 7 [2] were 8.04 and 7.59, respectively.

In the case of `Clc1cccc(-n2cnnc2NCc2cccnc2-c2ccsc2)c1Cl`, the pIC50 at P2X purinoceptor 7 [1] is 7.96; at P2X purinoceptor 7 [2], 7.44.

As for `Cc1ccccc1CNc1ncnn1-c1cccc(Cl)c1Cl`, the pIC50 was 7.68 on P2X purinoceptor 7 [1] and 6.70 at P2X purinoceptor 7 [2].

As to `Cc1nnc(NCc2cccnc2-c2ccsc2)n1-c1cccc(Cl)c1Cl`, the pIC50 on P2X purinoceptor 7 [1] was 7.40; at P2X purinoceptor 7 [2] it was 7.34.

For `COc1ccccc1CNc1ncnn1-c1cccc(Cl)c1Cl`, the pIC50 at P2X purinoceptor 7 [1] was 7.24; at P2X purinoceptor 7 [2], 6.15.

`CCOc1ccccc1Nc1ncnn1-c1cccc(Cl)c1Cl`: the pIC50 on P2X purinoceptor 7 [1] was 5.73; at P2X purinoceptor 7 [2], 4.96.

As to `CS(=O)(=O)c1ccccc1CNc1ncnn1-c1cccc(Cl)c1Cl`, the figures for the pIC50 at P2X purinoceptor 7 [1] and on P2X purinoceptor 7 [2] were 7.70 and 7.40, respectively.

For the molecule `CSc1ccccc1CNc1ncnn1-c1cccc(Cl)c1Cl`, the figures for the pIC50 at P2X purinoceptor 7 [1] and at P2X purinoceptor 7 [2] were 7.31 and 6.54, respectively.

Regarding `COc1cccc(CNc2ncnn2-c2cccc(Cl)c2Cl)c1`, the pIC50 at P2X purinoceptor 7 [1] is 6.54; at P2X purinoceptor 7 [2], 5.86.

As for `Clc1cccc(-n2cnnc2NCc2cccnc2)c1Cl`, the pIC50 on P2X purinoceptor 7 [1] is 6.45; on P2X purinoceptor 7 [2], 5.95.

Consider `FC(F)(F)Oc1ccccc1Nc1ncnn1-c1cccc(Cl)c1Cl`, for which the pIC50 was 6.21 on P2X purinoceptor 7 [1] and 5.26 at P2X purinoceptor 7 [2].

Consider `COc1ccc(CNc2ncnn2-c2cccc(Cl)c2Cl)cc1`, for which the negative logarithm of the IC50 (pIC50) at P2X purinoceptor 7 [1] was 5.79; on P2X purinoceptor 7 [2], 4.98.

With `Clc1cccc(-n2ncnc2NCc2cccnc2N2CCOCC2)c1Cl`, the values for the pIC50 on P2X purinoceptor 7 [1] and at P2X purinoceptor 7 [2] were 7.55 and 6.67, respectively.

On to `Cc1ncccc1CNc1ncnn1-c1cccc(Cl)c1Cl`, for which the results for the pIC50 on P2X purinoceptor 7 [1] and at P2X purinoceptor 7 [2] were 7.93 and 6.53, respectively.

Values taken from ChEMBL document CHEMBL1143223, “Synthesis and in vitro activity of 1-(2,3-dichlorophenyl)-N-(pyridin-3-ylmethyl)-1H-1,2,4-triazol-5-amine and 4-(2,3-dichlorophenyl)-N-(pyridin-3-ylmethyl)-4H-1,2,4-triazol-3-amine P2X7 antagonists” (Bioorg Med Chem Lett, 2008).
